Key:
Experiment in all cases: relative viability (nuclei count vs DMSO), 5 days (fraction); higher = more cells survive
Erlotinib + Alpelisib = compound: C#Cc1cccc(Nc2ncnc3cc(OCCOC)c(OCCOC)cc23)c1 [Erlotinib] + Cc1nc(NC(=O)N2CCC[C@H]2C(N)=O)sc1-c1ccnc(C(C)(C)C(F)(F)F)c1 [Alpelisib] (partner 2 µM)
Outline: (§1)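 Medians of duplicate plates are given as relative viability. That measure is the nuclei count in treated wells divided by the count in vehicle wells. Counts were taken on 4× images of lung cancer cell lines in 1536-well plates, 5 days after pin-tool dosing the day after seeding with one drug alone or a fixed anchor-drug dose plus five library-drug doses (not always all listed) in √10 steps.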

Erlotinib + Tozasertib = compound: C#Cc1cccc(Nc2ncnc3cc(OCCOC)c(OCCOC)cc23)c1 [Erlotinib] + Cc1cc(Nc2cc(N3CCN(C)CC3)nc(Sc3ccc(NC(=O)C4CC4)cc3)n2)n[nH]1 [Tozasertib] (partner 0.1 µM)
Outline: as §1

AT9283 + Pictilisib = compound: O=C(Nc1c[nH]nc1-c1nc2ccc(CN3CCOCC3)cc2[nH]1)NC1CC1 [AT9283] + CS(=O)(=O)N1CCN(Cc2cc3nc(-c4cccc5[nH]ncc45)nc(N4CCOCC4)c3s2)CC1 [Pictilisib] (partner 1 µM)
Outline: as §1

AT9283 + Palbociclib = compound: O=C(Nc1c[nH]nc1-c1nc2ccc(CN3CCOCC3)cc2[nH]1)NC1CC1 [AT9283] + CC(=O)c1c(C)c2cnc(Nc3ccc(N4CCNCC4)cn3)nc2n(C2CCCC2)c1=O [Palbociclib] (partner 0.5 µM)
Outline: as §1

AT9283 + Phenformin = compound: O=C(Nc1c[nH]nc1-c1nc2ccc(CN3CCOCC3)cc2[nH]1)NC1CC1 [AT9283] + N=C(N)NC(=N)NCCc1ccccc1 [Phenformin] (partner 250 µM)
Outline: as §1

With NCI-H441 the relative viability (Erlotinib + Alpelisib; first compound 0.02 µM) was 0.688, the relative viability (Erlotinib + Alpelisib; first compound 0.2 µM) was 0.655 and the relative viability (Erlotinib + Alpelisib; first compound 0.6325 µM) was 0.743. For the same cell line, the relative viability (Erlotinib + Alpelisib; first compound 2 µM) was 0.466, the relative viability (Erlotinib + Tozasertib; first compound 0.02 µM) was 0.631 and the relative viability (Erlotinib + Tozasertib; first compound 0.2 µM) was 0.717. The relative viability (Erlotinib + Tozasertib; first compound 0.6325 µM) was 0.574, the relative viability (Erlotinib + Tozasertib; first compound 2 µM) was 0.473 and the relative viability (AT9283 + Pictilisib; first compound 0.003 µM) was 0.359. The relative viability (AT9283 + Pictilisib; first compound 0.03 µM) was 0.469, the relative viability (AT9283 + Pictilisib; first compound 0.09487 µM) was 0.138 and the relative viability (AT9283 + Pictilisib; first compound 0.3 µM) was 0.186. For the same cell line, the relative viability (AT9283 + Palbociclib; first compound 0.003 µM) was 0.247, the relative viability (AT9283 + Palbociclib; first compound 0.03 µM) was 0.236 and the relative viability (AT9283 + Palbociclib; first compound 0.09487 µM) was 0.205. For the same cell line, the relative viability (AT9283 + Palbociclib; first compound 0.3 µM) was 0.175, the relative viability (AT9283 + Phenformin; first compound 0.003 µM) was 0.858 and the relative viability (AT9283 + Phenformin; first compound 0.03 µM) was 0.853. For the same cell line, the relative viability (AT9283 + Phenformin; first compound 0.09487 µM) was 0.286 and the relative viability (AT9283 + Phenformin; first compound 0.3 µM) was 0.244.
